pEC50, pIC50: −log10 of the molar value.
Key:
CD73 [1] = target: T1, CD73 (Homo sapiens, UniProt P21589); assay: Human CD73 Biochemical Assay; settings: 0.05 nM recombinant CD73; AMP 5.56 μM final; 10 min at room temperature; LC/MS adenosine readout; read-out: Enzymatic IC50 against human CD73
T1 sequence (P21589 27-574): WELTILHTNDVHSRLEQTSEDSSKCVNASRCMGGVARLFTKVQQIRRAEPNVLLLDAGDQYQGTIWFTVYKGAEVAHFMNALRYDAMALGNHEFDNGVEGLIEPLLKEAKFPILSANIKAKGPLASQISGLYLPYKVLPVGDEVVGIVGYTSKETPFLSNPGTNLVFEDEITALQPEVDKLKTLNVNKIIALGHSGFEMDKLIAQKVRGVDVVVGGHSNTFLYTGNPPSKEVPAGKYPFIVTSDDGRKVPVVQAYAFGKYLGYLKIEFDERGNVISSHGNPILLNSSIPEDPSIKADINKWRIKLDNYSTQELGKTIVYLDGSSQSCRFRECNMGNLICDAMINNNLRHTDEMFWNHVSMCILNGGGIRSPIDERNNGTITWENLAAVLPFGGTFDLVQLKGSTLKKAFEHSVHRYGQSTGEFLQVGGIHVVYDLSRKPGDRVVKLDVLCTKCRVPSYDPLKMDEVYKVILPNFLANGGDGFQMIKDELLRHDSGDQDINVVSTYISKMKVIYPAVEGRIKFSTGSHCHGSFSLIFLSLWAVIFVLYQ
Method: The purpose of this assay is to identify and characterize inhibitors of human CD73 enzymatic activity. Compound serial dilution (1:3) was prepared with Echo 555 liquid handler (Labcyte) into the corresponding wells of a 384-well plate. 10 μL of enzyme working solution (containing 0.05 nM recombinant CD73 protein, 10 mM Tris pH 7.5, 100 mM NaCl, 0.01% BSA, 0.2 mM Octyl glucoside and 1 mM NaH2PO4) was added to the assay plate and incubated with compounds for 15 minutes at room temperature. After adding 15 μL of AMP working solution (Containing 10 mM Tris pH 7.5, 100 mM NaCl, 0.01% BSA, 0.2 mM Octyl glucoside, with 5.56 μM of AMP final concentration) and incubate for 10 min at room temperature. Stop the reaction by adding 75 μL of stop solution (5% TCA in H2O containing 250 nM 13C5-adenosine) to each well for 10 min incubation. After centrifugation, 75 μL of the mixture was transferred to a new 384-well plate for LC/MS analysis.
Samples from the 384-well plates, were loaded onto an autosampler deck, then injected with ADDA-LC-MS/MS. The aqueous mobile phase is 0.1% formic acid in water. The organic mobile phase is 0.1% formic acid in acetonitrile. Flow rate is maintained at 0.8 mL/minute using Shimadzu pumps. The column is ACE 5 Phenyl, 50×2.1 mm. The analysis was performed on a SCIEX triple quadrupole mass spectrometer operating in positive ion mode. The effluent from the HPLC column was directly introduced into the electrospray ionization (ESI). Multiple reaction monitoring (MRM) is used to determine analyte and internal standard (IS) responses. The MRM for adenosine is 268.1/136.1, for 13C5-Adenosine (IS) is 273.2/136.2. The data is calculated using the peak area ratio (PAR) semi-quantitative method.

CD4+ T cells = assay: T Cell Proliferation Assay: CD4+ T cell proliferation; assay type: cell-based; settings: Homo sapiens, high AMP condition (200 μM AMP, 5 μM EHNA), CD3/CD28 beads, 72 hours, read-out: CD4+ T cell proliferation EC50 (rescue of proliferation)
Method: (§1) The purpose of this assay is to characterize the potency of inhibitors of CD73 in rescuing adenosine-mediated inhibition of T cell proliferation. CD4+ or CD8+ T cells were isolated from peripheral blood mononuclear cells (PBMCs, HemaCare) by immunomagnetic negative selection using EasySep™ Isolation Kit (STEMCELL Technologies) following the supplier's protocol. Pan T cells were pelleted by centrifugation at 300 gravitational force (g) for 5 minutes at room temperature and re-suspended in PBS. CellTrace™ Violet staining solution (Invitrogen) was added at 1:5,000 and incubated at 37° C. for 20 minutes, protected from light. Complete culture medium [RPMI-1640 (Gibco), 10% Fetal Bovine Serum (Gibco), 2 mM GlutaMAX (Gibco) and 1 mM Sodium Pyruvate (Gibco), 100 U/mL Penicillin-Streptomycin (Gibco) and MEM non-essential amino acids (NEAA) cell culture supplement (1:100, Gibco)] was then added, mixed, and incubated at 37° C. for 5 minutes. Cells were then pelleted by centrifugation at 300 g for 5 minutes at room temperature and re-suspended in fresh, pre-warmed complete culture medium. 50 μL of cells were seeded per well in 96 well u-bottom plates. 50 μL of CD3/CD28 beads-containing medium and 50 μL of media containing compounds were added into cells. 50 μL of media containing AMP and EHNA hydrochloride (Sigma-Aldrich) was added into cells at 200 μM and 5 μM final concentration, respectively. Cells were incubated for 72 hours at 37° C. in a 5% CO2 incubator. 200 μL of PBS was then added to each well and cells were centrifuged at 300 g, 4° C. for 10 minutes. The supernatant was discarded. 50 μL of Human TruStain FcX™ (Fc Receptor Blocking Solution, BioLegend) diluted 1:100 in PBS was added to each well, mixed gently and incubated for 20 minutes at 4° C. 50 μL of staining solution (BioLegend) was added to each well, mixed gently and incubated at 4° C. for 30 minutes. Cells were centrifuged at 300 g, 4° C. for 10 minutes and the supernatant was discarded. The cell pellets were washed with 250 μL of cell staining buffer and centrifuged at 300 g, 4° C. for 10 minutes. The supernatant was discarded and cells were re-suspended in 60 μL of cell staining buffer and analyzed on a flow cytometer.

CD73 [2] = target: T1, CD73; assay: CD73 Cellular Assay; assay type: cell-based; set-up: 40 μL of MDA-MB-231 cells (ATCC, HTB-26, breast cancer); host or cells: MDA-MB-231; settings: MDA-MB-231 cells; 200 μM AMP working solution; 45 min at 37° C.; malachite readout; read-out: Cellular IC50 against CD73
Method: Compound serial dilution (1:3) was prepared with Echo 555 liquid handler (Labcyte) into the corresponding wells of a 384-well plate. 40 μL of MDA-MB-231 cells (ATCC, HTB-26, breast cancer, final concentration at 20,000 cells/mL) suspended in assay buffer (20 mM HEPES pH 7.4, 137 mM NaCl, 5.4 mM KCl, 1.3 mM CaCl2, 4.2 mM NaHCO3, 1 mg/mL glucose) were added into the corresponding wells of the plate. After incubating with compounds for 30 minutes, 40 μL of AMP working solution (200 μM AMP in assay buffer) was added into each well in the assay plate. The assay plate was then incubated in a 5% CO2 incubator (Thermo Fisher Scientific) at 37° C. for 45 min. After the reaction was completed, 50 μL of the supernatants was collected and transferred into a new 384 well plate. 10 μL of Malachite A was added to each well in the assay plate and incubated for 10 minutes. 10 μL of Malachite B was then added to each corresponding well of the plate and incubated for 30 minutes. Finally the absorbance value was read on the Envision plate reader at […]. Calculation percentage inhibition by using equation {% inhibition=100×[1−(X−MIN)/(MAX−MIN)]} where X equals to the well signal, Max equals signal of neutral control and MIN equals signal of inhibitor control.

CD8+ T cells = assay: T Cell Proliferation Assay: CD8+ T cell proliferation; assay type: cell-based; settings: high AMP condition (200 μM AMP, 5 μM EHNA), CD3/CD28 beads, 72 hours, read-out: CD8+ T cell proliferation EC50 (rescue of proliferation)
Method: as §1

| Structure (SMILES) | pIC50 (CD73 [1]) | pIC50 (CD73 [2]) | pEC50 (CD4+ T cells) | pEC50 (CD8+ T cells) |
| --- | --- | --- | --- | --- |
| Cn1nc(O[C@H](c2ccnc(COC3CC3)c2)C(F)F)c2cc(-c3c[nH]c(=O)[nH]c3=O)nnc21 [Example 2, 5-[3-[(1R)-1-[2-(cyclopropoxymethyl)-4-pyridyl]-2,2-difluoro-ethoxy]-1-methyl-pyrazolo[3,4-c]pyridazin-5-yl]-1H-pyrimidine-2,4-dione] | 10.15 | 9.68 | 9.74 | 9.77 |
| Cn1nc(O[C@H](c2cc(OCC(F)(F)F)ccn2)C(F)F)c2cc(-c3c[nH]c(=O)[nH]c3=O)nnc21 [Example 4, 5-[3-[(1R)-2,2-difluoro-1-[4-(2,2,2-trifluoroethoxy)-2-pyridyl]ethoxy]-1-methyl-pyrazolo[3,4-c]pyridazin-5-yl]-1H-pyrimidine-2,4-dione] | 10.15 | 9.31 | 9.74 | 9.66 |
| Cn1nc(O[C@H](c2ccnc(OCC(F)(F)F)c2)C(F)F)c2cc(-c3c[nH]c(=O)[nH]c3=O)nnc21 [Example 10, 5-[3-[(1R)-2,2-difluoro-1-[2-(2,2,2-trifluoroethoxy)-4-pyridyl]ethoxy]-1-methyl-pyrazolo[3,4-c]pyridazin-5-yl]-1H-pyrimidine-2,4-dione] | 10.22 | 9.26 | 9.85 | 10.10 |
| Cn1nc(O[C@H](c2ccnc(OCC(F)(F)F)c2)C(F)F)c2cc(-c3n[nH]c(=O)[nH]c3=O)nnc21 [Example 12, 6-[3-[(1R)-2,2-difluoro-1-[2-(2,2,2-trifluoroethoxy)-4-pyridyl]ethoxy]-1-methyl-pyrazolo[3,4-c]pyridazin-5-yl]-2H-1,2,4-triazine-3,5-dione] | 10.70 | 9.17 | 9.82 | 9.92 |
| Cn1nc(O[C@H](c2ccc3cnn(CC(F)(F)F)c3c2)C(F)F)c2cc(-c3c[nH]c(=O)[nH]c3=O)nnc21 [Example 24, 5-[3-[(1R)-2,2-difluoro-1-[1-(2,2,2-trifluoroethyl)indazol-6-yl]ethoxy]-1-methyl-pyrazolo[3,4-c]pyridazin-5-yl]-1H-pyrimidine-2,4-dione] | 10.30 | 9.36 | 9.72 | 9.64 |
| C[C@H](Nc1cc([C@@H](Oc2nn(C)c3nnc(-c4c[nH]c(=O)[nH]c4=O)cc23)C(F)F)ccn1)C(F)(F)F [Example 26, 5-[3-[(1R)-2,2-difluoro-1-[2-[[(1S)-2,2,2-trifluoro-1-methyl-ethyl]amino]-4-pyridyl]ethoxy]-1-methyl-pyrazolo[3,4-c]pyridazin-5-yl]-1H-pyrimidine-2,4-dione] | 10.40 | 9.57 | 10.10 | 10.05 |
| COCCOc1cc([C@@H](Oc2nn(C)c3nnc(-c4c[nH]c(=O)[nH]c4=O)cc23)C(F)F)ccn1 [Example 28, 5-[3-[(1R)-2,2-difluoro-1-[2-(2-methoxyethoxy)-4-pyridyl]ethoxy]-1-methyl-pyrazolo[3,4-c]pyridazin-5-yl]-1H-pyrimidine-2,4-dione] | 10.30 | 9.20 | 9.48 | 9.25 |
| Cn1nc(O[C@H](c2ccnc(COCC(F)(F)F)c2)C(F)F)c2cc(-c3c[nH]c(=O)[nH]c3=O)nnc21 [Example 34, 5-[3-[(1R)-2,2-difluoro-1-[2-(2,2,2-trifluoroethoxymethyl)-4-pyridyl]ethoxy]-1-methyl-pyrazolo[3,4-c]pyridazin-5-yl]-1H-pyrimidine-2,4-dione] | 10.15 | 9.38 | 10.00 | 9.96 |
| Cn1nc(O[C@H](c2ccnc(C3CC(F)(F)C3)c2)C(F)F)c2cc(-c3c[nH]c(=O)[nH]c3=O)nnc21 [Example 38, 5-[3-[(1R)-1-[2-(3,3-difluorocyclobutyl)-4-pyridyl]-2,2-difluoro-ethoxy]-1-methyl-pyrazolo[3,4-c]pyridazin-5-yl]-1H-pyrimidine-2,4-dione] | 10.22 | 9.44 | 10.22 | 10.15 |

Second part, led by results:

| pIC50 (CD73 [1]) | pIC50 (CD73 [2]) | Structure (SMILES) | pEC50 (CD4+ T cells) | pEC50 (CD8+ T cells) |
| --- | --- | --- | --- | --- |
| 10.22 | 9.23 | Cn1nc(O[C@H](c2cc(OCC(F)(F)F)ncn2)C(F)F)c2cc(-c3c[nH]c(=O)[nH]c3=O)nnc21 (single isomer, unassigned) [Example 35A] | 9.52 | 9.49 |
| 10.30 | 9.14 | Cn1nc(O[C@H](c2ccnc(OCC(F)F)c2)C(F)F)c2cc(-c3c[nH]c(=O)[nH]c3=O)nnc21 [Example 11B, 5-[3-[(1R)-1-[2-(2,2-difluoroethoxy)-4-pyridyl]-2,2-difluoro-ethoxy]-1-methyl-pyrazolo[3,4-c]pyridazin-5-yl]-1H-pyrimidine-2,4-dione] | 9.62 | 9.54 |
|  | 8.45 | O=c1[nH]cc(-c2cc(N3C[C@H](Oc4ncc(C(F)(F)F)cn4)C(F)(F)C3)c3nccn3n2)c(=O)[nH]1 [Example G351, reference compound] | 8.06 | 8.09 |

— patent publication US20260317332A1, “BICYCLIC HETEROCYCLE COMPOUNDS FOR THE TREATMENT OF CANCER” (Hoffmann-La Roche Inc., priority 2023, published 2026)
